Laboratory results reported in patent US20250353842A1, “BICYCLIC AMINE CDK12 INHIBITORS” (Incyte Corporation, priority 2022, published 2025).

Biological target: CDK12 complexed with Cyclin K (Homo sapiens (Human), UniProt Q9NYV4)
Test: CDK enzymatic assay (HTRF, LANCE Ultra kinase assay)
Assay type: biochemical
Conditions: 60 minutes pre-incubation, 1 mM ATP
Method: The following activity of the CDK enzymes in complex with their respective cyclins we assayed: CDK1 complexed with Cyclin B1; CDK2 complexed with Cyclin E1; CDK4 complexed with Cyclin D1; CDK6 complexed with Cyclin D1; CDK6 complexed with Cyclin D3; CDK9 complexed with Cyclin T1; CDK7 complexed with Cyclin H/MAT1; CDK2 complexed with Cyclin A2; CDK5 complexed with p35; CDK12 complexed with Cyclin K; CDK13 complexed with Cyclin K. These in vitro enzyme activity are assayed using homogeneous time-resolved energy transfer (HTRF), which measures phosphorylation of a peptide substrate. The LANCE® Ultra kinase assay (PerkinElmer) uses a ULight™-labeled EIF4E-binding protein 1 (THR37/46) peptide (DYSTTPGGTLFSTTPGTRI) (SEQ ID NO: 1) substrate and a Europium-labeled anti-phospho-4E-BP1 antibody (CDK2, CDK1, CDK4, CDK6, CDK9, CDK12, CDK13) or ULight™-labeled Myelin Basic Protein peptide (VTPRTPPP) (SEQ ID NO: 2) substrate and a Europium-labeled anti-phospho-MBP antibody (CDK7). Each CDK enzyme activity assays utilized human CDK co-expressed as N-terminal GST-tagged protein with its full length cyclin partner using a baculovirus expression system.
Enzyme was pre-incubated with compounds for 30 minutes (CDK1,2,4,6,9) or 60 minutes (CDK7, CDK12, CDK13) prior to addition of ATP and Ulight-peptide (1 mM and 50 nM final, respectively), in assay buffer containing 50 mM HEPES pH 7.5, 1 mM EGTA, 10 mM MgCl2, 2 mM DTT, 0.05 mg/mL BSA, and 0.01% Tween 20.
The reaction was then incubated for 60-90 minutes at room temperature. The reactions were stopped by the addition of EDTA and Europium labeled antibody, for a final concentration of 15 mM and 1.0-1.5 nM, respectively. HTRF signals were read after 15-120 minutes. A ratio of fluorescence transferred to the labeled substrate (665 nm) relative to fluorescence of the Europium donor (620 nm) represents the extent of phosphorylation. Ratios for treated wells were normalized to DMSO only (100% activity) and no enzyme (0% activity) controls. Normalized data was analyzed using a three or four parameter dose response curve to determine IC50 for each compound and are shown in Table A. Control reference inhibitors were included on each plate.

Sequence of CDK12 complexed with Cyclin K (Q9NYV4 whole entry): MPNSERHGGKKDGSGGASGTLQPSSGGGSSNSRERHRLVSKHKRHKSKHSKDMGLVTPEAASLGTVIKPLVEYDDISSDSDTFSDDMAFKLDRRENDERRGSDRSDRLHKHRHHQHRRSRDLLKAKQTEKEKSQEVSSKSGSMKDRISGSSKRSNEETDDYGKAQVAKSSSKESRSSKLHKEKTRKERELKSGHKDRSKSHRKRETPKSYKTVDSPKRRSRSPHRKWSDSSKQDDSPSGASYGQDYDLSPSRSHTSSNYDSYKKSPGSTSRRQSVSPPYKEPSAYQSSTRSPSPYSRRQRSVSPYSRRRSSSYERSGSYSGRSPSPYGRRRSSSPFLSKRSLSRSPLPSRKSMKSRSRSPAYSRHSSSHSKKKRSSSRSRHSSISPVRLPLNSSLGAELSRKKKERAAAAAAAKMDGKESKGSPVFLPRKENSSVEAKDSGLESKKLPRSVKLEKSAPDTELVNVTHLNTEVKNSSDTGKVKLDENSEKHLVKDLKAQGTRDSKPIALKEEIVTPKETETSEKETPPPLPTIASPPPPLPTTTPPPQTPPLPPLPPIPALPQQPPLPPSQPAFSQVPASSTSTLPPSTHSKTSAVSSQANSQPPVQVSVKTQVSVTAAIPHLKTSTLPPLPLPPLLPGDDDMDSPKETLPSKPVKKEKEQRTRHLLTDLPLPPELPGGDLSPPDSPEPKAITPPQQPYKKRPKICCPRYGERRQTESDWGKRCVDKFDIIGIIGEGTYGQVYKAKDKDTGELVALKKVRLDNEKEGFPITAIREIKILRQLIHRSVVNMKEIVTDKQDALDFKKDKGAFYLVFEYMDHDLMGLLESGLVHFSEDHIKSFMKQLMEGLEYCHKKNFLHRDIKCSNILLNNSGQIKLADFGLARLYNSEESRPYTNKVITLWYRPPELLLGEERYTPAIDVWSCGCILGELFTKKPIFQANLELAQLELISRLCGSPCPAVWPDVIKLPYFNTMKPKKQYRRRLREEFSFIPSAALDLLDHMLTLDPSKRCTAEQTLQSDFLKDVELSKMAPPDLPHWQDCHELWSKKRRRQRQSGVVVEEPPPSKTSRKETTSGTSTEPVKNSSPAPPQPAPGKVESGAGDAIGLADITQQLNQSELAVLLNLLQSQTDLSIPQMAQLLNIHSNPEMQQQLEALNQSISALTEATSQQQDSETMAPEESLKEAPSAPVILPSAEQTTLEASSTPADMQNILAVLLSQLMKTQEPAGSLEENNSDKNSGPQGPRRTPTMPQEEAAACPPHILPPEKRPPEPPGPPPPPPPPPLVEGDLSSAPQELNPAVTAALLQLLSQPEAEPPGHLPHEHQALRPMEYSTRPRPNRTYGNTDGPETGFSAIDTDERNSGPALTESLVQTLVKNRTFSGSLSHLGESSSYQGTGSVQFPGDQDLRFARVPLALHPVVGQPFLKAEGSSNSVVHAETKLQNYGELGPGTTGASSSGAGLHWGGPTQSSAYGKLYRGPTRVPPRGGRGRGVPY
Sequence of CDK12 complexed with Cyclin K (O75909 whole entry partner): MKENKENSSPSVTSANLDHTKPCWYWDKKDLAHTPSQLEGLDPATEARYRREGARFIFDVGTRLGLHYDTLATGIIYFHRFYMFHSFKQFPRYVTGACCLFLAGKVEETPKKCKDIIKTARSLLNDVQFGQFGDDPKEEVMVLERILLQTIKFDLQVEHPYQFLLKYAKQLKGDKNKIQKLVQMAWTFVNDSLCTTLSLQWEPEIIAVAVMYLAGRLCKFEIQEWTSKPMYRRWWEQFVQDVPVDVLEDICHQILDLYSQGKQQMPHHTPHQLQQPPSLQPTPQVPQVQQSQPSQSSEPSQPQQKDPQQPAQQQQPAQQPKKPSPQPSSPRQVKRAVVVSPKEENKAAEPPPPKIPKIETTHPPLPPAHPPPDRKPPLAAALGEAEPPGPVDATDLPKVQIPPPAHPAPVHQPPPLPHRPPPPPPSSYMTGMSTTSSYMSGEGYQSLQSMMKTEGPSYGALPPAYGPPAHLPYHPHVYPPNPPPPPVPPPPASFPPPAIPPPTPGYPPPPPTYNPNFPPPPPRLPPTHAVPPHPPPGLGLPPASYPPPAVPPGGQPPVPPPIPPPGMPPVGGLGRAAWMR

| IC50 | SMILES |
| --- | --- |
| < 50 nM | CC(C)n1cnc(-c2nc(N[C@@H]3CCC[C@H](n4cnc5cccnc54)C3)ncc2C#N)c1 [Example 27, 2-(((1R,3S)-3-(3H-Imidazo[4,5-b]pyridin-3-yl)cyclohexyl)amino)-4-(1-isopropyl-1H-imidazol-4-yl)pyrimidine-5-carbonitrile] |
| 50 to 500 nM | Cc1cnc(-c2nc(N[C@@H]3CCC[C@H](n4cnc5cc(C#N)cnc54)C3)ncc2C#N)n1C [Example 29, 3-((1S,3R)-3-((5-Cyano-4-(1,5-dimethyl-1H-imidazol-2-yl)pyrimidin-2-yl)amino)cyclohexyl)-3H-imidazo[4,5-b]pyridine-6-carbonitrile] |
| 50 to 500 nM | Cc1c(Nc2nc(N[C@@H]3CCC[C@H](n4cnc5cc(C#N)cnc54)C3)ncc2C#N)cnn1C [Example 30, 3-((1S,3R)-3-((5-Cyano-4-((1,5-dimethyl-1H-pyrazol-4-yl)amino)pyrimidin-2-yl)amino)cyclohexyl)-3H-imidazo[4,5-b]pyridine-6-carbonitrile] |
| < 50 nM | N#Cc1cnc(N[C@@H]2CCC[C@H](n3cnc4cncc(C#N)c43)C2)nc1-c1cnn(CCO)c1 [Example 32, 1-((1S,3R)-3-((5-Cyano-4-(1-(2-hydroxyethyl)-1H-pyrazol-4-yl)pyrimidin-2-yl)amino)cyclohexyl)-1H-imidazo[4,5-c]pyridine-7-carbonitrile] |
| < 50 nM | N#Cc1cnc(N[C@@H]2CCC[C@H](n3cnc4cncc(Br)c43)C2)nc1-c1cnn(CC(F)F)c1 [Example 39, 2-(((1R,3S)-3-(7-Bromo-1H-imidazo[4,5-c]pyridin-1-yl)cyclohexyl)amino)-4-(1-(2,2-difluoroethyl)-1H-pyrazol-4-yl)pyrimidine-5-carbonitrile] |

Second part, the compound before the results:

| SMILES | IC50 |
| --- | --- |
| Cn1ncc(-c2nc(N[C@@H]3CCC[C@H](n4cnc5cccnc54)C3)ncc2C#N)c1CO [Example 26, 2-(((1R,3S)-3-(3H-Imidazo[4,5-b]pyridin-3-yl)cyclohexyl)amino)-4-(5-(hydroxymethyl)-1-methyl-1H-pyrazol-4-yl)pyrimidine-5-carbonitrile] | 50 to 500 nM |
| N#Cc1cnc(N[C@@H]2CCC[C@H](n3cnc4cncc(C#N)c43)C2)nc1-c1cnn(CC(F)F)c1 [Example 31, 1-((1S,3R)-3-((5-Cyano-4-(1-(2,2-difluoroethyl)-1H-pyrazol-4-yl)pyrimidin-2-yl)amino)cyclohexyl)-1H-imidazo[4,5-c]pyridine-7-carbonitrile] | < 50 nM |
| CC(C)n1cc(-c2nc(N[C@@H]3CCC[C@H](n4cnc5cncc(C#N)c54)C3)ncc2C#N)cn1 [Example 33, 1-((1S,3R)-3-((5-Cyano-4-(1-isopropyl-1H-pyrazol-4-yl)pyrimidin-2-yl)amino)cyclohexyl)-1H-imidazo[4,5-c]pyridine-7-carbonitrile] | < 50 nM |
| N#Cc1cnc(N[C@@H]2CCC[C@H](n3cnc4cncc(C#N)c43)C2)nc1-c1cnn(C2CC2)c1 [Example 34, 1-((1S,3R)-3-((5-Cyano-4-(1-cyclopropyl-1H-pyrazol-4-yl)pyrimidin-2-yl)amino)cyclohexyl)-1H-imidazo[4,5-c]pyridine-7-carbonitrile] | < 50 nM |
| N#Cc1cnc2c(c1)ncn2[C@@H]1CCC[C@H](Nc2ncc(C#N)c(-c3cnn(CC(F)F)c3)n2)C1 [Example 35, 3-((1R,3S)-3-((5-Cyano-4-(1-(2,2-difluoroethyl)-1H-pyrazol-4-yl)pyrimidin-2-yl)amino)cyclohexyl)-3H-imidazo[4,5-b]pyridine-6-carbonitrile] | > 500 nM |
| N#Cc1cnc(N[C@@H]2CCC[C@H](n3cnc4cc(F)cc(Cl)c43)C2)nc1-c1cnn(CC(F)F)c1 [Example 36, 2-(((1R,3S)-3-(7-Chloro-5-fluoro-1H-benzo[d]imidazol-1-yl)cyclohexyl)amino)-4-(1-(2,2-difluoroethyl)-1H-pyrazol-4-yl)pyrimidine-5-carbonitrile] | < 50 nM |
| N#Cc1cnc2c(c1)ncn2[C@H]1CCC[C@@H](Nc2ncc(C#N)c(-c3cnn(C4CCC4)c3)n2)C1 [Example 38, 3-((1S,3R)-3-((5-Cyano-4-(1-cyclobutyl-1H-pyrazol-4-yl)pyrimidin-2-yl)amino)cyclohexyl)-3H-imidazo[4,5-b]pyridine-6-carbonitrile] | < 50 nM |
